The source made the active and inactive calls.
Experiments:
Cytochrome P450 2C19 = Cytochrome P450 2C19 (Homo sapiens, UniProt P33261); assay: Cytochrome panel assay with activity outcomes. Panel member name: p450-cyp2c19 Compounds with AC50 equal or less than 10 uM are considered active; type: functional; details: read-out: AC50
Cytochrome P450 2D6 = Cytochrome P450 2D6 (Homo sapiens, UniProt P10635);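 note: CYP2D6 member of a cytochrome P450 panel assay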
[1] = HEp-2 cell cytotoxicity, dose response, cytotoxicity control for RSV inhibitor project, HTS (AID 2410); type: functional; details: human respiratory syncytial virus
[2] = Luminescence Cell-Based Dose Retest to Confirm Inhibitors of Cancer Stem Cells. [Related pubchem assays (depositor defined):AID2717, AID2721]; type: functional; details: Homo sapiens
[3] = molecular target: T1, Replicative DNA helicase DnaB (Mycobacterium tuberculosis, UniProt P9WMR3); assay: DnaB intein splicing inhibitors, dose response, biochemical, cell-free fluorescence (AID 449749); type: functional
T1 sequence (P9WMR3 whole entry): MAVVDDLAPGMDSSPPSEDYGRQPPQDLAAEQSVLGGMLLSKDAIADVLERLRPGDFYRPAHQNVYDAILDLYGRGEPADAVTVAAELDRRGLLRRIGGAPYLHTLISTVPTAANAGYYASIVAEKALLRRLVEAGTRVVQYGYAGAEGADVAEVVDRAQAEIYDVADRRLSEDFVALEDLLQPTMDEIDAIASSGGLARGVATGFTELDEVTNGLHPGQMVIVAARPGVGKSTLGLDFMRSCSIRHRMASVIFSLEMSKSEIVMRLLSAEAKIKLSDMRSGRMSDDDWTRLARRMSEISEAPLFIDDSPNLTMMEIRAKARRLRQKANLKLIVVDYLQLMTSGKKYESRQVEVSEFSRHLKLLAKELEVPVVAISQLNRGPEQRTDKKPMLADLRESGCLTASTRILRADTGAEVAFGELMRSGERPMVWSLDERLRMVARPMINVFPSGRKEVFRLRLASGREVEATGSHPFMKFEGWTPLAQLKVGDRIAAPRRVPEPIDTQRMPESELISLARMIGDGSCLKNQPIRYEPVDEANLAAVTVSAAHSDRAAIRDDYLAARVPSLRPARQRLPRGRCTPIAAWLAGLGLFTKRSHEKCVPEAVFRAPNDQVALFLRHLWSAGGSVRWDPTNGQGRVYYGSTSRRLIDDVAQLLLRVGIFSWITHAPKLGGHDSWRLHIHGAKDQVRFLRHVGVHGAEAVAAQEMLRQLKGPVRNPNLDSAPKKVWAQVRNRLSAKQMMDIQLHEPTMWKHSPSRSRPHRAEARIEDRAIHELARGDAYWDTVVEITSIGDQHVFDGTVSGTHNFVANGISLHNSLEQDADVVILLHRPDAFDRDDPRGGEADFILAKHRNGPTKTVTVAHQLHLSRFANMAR

Protein RecA = molecular target: T2, Protein RecA (Mycobacterium tuberculosis, UniProt P9WHJ3); assay: Fluorescence Cell-Free Homogeneous Dose Retest to Identify Inhibitors of RecA-Intein Splicing Activity. [Related pubchem assays (depositor defined):AID2097, AID2223, AID489010, AID492950]; type: functional
T2 sequence (P9WHJ3 whole entry): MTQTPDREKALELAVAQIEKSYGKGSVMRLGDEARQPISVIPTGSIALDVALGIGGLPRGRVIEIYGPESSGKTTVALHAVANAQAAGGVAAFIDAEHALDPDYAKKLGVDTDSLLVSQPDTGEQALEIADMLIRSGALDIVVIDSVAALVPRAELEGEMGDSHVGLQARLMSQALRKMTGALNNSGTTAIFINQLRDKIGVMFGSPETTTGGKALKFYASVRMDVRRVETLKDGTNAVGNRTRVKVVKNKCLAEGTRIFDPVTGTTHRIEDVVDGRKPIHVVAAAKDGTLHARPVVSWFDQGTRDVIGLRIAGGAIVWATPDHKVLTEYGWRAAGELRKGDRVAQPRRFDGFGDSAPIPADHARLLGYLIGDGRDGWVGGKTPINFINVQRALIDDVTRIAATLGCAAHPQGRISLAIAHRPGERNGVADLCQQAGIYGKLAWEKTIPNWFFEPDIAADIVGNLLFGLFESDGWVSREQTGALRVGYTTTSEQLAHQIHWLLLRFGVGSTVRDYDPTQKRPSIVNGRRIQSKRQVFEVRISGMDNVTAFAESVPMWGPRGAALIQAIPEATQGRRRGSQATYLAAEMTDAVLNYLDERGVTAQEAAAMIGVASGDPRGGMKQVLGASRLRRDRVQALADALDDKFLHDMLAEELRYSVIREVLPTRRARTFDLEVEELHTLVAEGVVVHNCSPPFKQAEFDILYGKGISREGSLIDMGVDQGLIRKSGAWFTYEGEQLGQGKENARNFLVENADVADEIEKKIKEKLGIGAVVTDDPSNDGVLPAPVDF

Large T antigen = Large T antigen (Simian virus 40, UniProt P03070); type: functional, Betapolyomavirus macacae;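 note: Confirmatory-stage PubChem screen for compounds that inhibit SV40 T antigen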
INS1 = assay: beta cell apoptosis inhibitors, cytokine rescue, dose response, luminescence, retest (AID 449756); type: functional, cell-based; details: Rattus norvegicus, INS1;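 note: cell death triggered by IL-1 beta plus TNF-alpha plus IFN-gamma mixture; protective hits raise ATP signal compared with cytokine alone wells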
Cytochrome P450 1A2 = molecular target: T3, Cytochrome P450 1A2 (Homo sapiens, UniProt P05177);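 note: PubChem cytochrome P450 panel assay, CYP1A2 panel member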
T3 sequence (P05177 whole entry): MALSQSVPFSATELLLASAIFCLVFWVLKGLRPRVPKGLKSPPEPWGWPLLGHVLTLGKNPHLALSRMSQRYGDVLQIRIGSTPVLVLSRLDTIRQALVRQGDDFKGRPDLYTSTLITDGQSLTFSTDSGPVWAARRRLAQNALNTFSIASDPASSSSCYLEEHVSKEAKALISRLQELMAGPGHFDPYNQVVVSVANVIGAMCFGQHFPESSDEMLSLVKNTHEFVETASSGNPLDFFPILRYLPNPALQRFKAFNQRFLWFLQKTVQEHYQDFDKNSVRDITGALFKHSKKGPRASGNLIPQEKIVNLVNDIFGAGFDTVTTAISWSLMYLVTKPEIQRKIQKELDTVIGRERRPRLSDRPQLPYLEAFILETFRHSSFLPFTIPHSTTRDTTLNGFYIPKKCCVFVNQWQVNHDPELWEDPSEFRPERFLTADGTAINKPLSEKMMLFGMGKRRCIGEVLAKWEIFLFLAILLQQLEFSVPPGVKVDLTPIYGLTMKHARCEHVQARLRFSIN

Cytochrome P450 2C9 = Cytochrome P450 2C9 (Homo sapiens, UniProt P11712)
[4] = test system: Streptococcus sp. 'group A'; assay: growth inhibition of control SK(-) GAS strain, dose response, counter-screen for streptokinase expression inhibitor project, luminescence, kanamycin, BacTiterGlo, confirmation (AID 1900); type: functional, organism-based
Streptokinase A = molecular target: T4, Streptokinase A (Streptococcus pyogenes serotype M1, UniProt P10520); assay: S. pyogenes streptokinase expression inhibitors, potency, dose response, plasminogen activation absorbance, OD405 (AID 1914); type: functional, Streptococcus pyogenes M1 GAS;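 note: secreted streptokinase activity via plasminogen activation per viability signal from cell pellet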
T4 sequence (P10520 whole entry): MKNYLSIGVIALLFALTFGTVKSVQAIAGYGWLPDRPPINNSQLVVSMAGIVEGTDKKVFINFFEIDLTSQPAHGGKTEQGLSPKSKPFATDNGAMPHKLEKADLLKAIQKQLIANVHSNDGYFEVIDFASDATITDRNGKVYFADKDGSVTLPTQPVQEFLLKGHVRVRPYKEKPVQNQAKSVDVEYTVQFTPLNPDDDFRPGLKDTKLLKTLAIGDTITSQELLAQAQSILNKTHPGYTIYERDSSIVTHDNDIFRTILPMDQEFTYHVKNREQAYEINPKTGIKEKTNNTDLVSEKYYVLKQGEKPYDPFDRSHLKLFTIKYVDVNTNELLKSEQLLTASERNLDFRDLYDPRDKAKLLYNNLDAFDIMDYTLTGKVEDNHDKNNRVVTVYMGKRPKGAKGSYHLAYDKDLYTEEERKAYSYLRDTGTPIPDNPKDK

[5] = growth suppression of PTEN-null colon cells, dose response, cell-based, HCT116 PTEN knockout (AID 1047); type: functional;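 note: HCT116 colon tumor cells with PTEN knocked out; cells exposed to compound for 60 hours before readout; potency for loss of cell viability measured by luminescence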
[6] = growth suppression of beta-catenin-knockout colon cells, dose response, cell-based, HCT116, human colon tumor (AID 1045); type: functional;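 note: HCT116 colon tumor cells with beta catenin knocked out; cells exposed to compound for 60 hours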
Streptococcus = assay: Group A Streptococcus viability loss, dose response, counter-screen for streptokinase expression inhibitor project, luminescence, BacTiterGlo (AID 1915); type: functional, organism-based;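 note: potency for reduction of bacterial viability or growth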
Cytochrome P450 3A4 = Cytochrome P450 3A4 (Homo sapiens, UniProt P08684);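 note: CYP3A4 tested as one member of a cytochrome P450 panel screen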
Chain of Cytochrome P450 3A4 (P08684 whole entry): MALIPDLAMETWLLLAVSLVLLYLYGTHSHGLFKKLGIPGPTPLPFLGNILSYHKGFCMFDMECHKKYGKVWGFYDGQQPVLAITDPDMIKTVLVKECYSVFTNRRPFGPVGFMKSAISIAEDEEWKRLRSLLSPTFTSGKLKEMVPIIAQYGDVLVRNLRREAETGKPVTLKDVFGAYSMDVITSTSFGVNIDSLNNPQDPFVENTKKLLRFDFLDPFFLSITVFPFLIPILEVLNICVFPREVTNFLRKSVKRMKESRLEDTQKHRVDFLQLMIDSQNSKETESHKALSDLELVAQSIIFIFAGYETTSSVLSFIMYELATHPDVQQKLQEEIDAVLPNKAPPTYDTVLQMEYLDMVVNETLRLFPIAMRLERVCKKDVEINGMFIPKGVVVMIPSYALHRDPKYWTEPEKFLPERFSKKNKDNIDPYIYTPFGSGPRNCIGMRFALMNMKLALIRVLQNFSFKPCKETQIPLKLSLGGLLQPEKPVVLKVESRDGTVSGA

Chain of Large T antigen (P03070 whole entry): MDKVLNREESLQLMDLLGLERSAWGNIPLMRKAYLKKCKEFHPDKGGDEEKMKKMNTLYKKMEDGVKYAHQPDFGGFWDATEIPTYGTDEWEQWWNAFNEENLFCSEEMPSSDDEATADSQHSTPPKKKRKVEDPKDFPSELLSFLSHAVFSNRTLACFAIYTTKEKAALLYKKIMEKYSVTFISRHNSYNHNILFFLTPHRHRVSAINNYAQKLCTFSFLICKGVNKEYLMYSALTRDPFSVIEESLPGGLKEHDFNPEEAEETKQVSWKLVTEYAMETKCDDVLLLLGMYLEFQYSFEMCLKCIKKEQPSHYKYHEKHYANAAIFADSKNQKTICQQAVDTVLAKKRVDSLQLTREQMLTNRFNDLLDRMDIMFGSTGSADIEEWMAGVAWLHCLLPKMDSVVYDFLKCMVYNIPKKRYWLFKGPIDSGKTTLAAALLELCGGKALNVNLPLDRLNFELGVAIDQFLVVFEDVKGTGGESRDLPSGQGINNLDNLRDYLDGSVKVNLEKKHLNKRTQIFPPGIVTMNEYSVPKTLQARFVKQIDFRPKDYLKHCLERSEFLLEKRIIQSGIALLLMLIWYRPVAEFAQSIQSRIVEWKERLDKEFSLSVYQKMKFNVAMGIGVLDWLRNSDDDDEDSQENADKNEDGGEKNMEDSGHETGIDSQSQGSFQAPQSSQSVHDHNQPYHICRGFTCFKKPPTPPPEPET
Chain of Cytochrome P450 2D6 (P10635 whole entry): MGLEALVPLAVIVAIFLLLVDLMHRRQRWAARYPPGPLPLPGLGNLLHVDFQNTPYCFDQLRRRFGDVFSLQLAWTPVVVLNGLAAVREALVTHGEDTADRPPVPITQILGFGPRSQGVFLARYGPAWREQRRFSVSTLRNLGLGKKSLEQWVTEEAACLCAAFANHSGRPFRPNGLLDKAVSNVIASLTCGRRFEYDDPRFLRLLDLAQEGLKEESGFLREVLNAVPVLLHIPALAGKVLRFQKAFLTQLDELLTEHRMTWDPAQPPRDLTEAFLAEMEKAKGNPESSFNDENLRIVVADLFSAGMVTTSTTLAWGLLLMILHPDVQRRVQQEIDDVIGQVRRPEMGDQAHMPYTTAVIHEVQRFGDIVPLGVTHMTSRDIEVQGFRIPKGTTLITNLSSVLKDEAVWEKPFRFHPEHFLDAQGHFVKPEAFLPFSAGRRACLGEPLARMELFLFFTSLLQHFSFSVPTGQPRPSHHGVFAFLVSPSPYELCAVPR
Chain of Cytochrome P450 2C9 (P11712 whole entry): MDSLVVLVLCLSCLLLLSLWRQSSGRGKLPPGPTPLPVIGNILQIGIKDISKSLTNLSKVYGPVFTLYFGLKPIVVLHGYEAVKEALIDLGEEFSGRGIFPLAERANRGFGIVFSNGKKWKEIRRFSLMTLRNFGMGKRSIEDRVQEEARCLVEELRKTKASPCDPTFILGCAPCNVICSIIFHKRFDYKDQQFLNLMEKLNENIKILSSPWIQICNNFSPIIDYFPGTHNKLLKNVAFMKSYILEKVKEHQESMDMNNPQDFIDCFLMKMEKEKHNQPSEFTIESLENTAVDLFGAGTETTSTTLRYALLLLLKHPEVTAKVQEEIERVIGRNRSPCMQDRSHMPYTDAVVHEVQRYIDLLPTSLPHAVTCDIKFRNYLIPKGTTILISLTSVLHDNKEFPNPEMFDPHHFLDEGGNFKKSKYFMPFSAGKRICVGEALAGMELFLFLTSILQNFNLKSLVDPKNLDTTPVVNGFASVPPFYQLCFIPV
Chain of Cytochrome P450 2C19 (P33261 whole entry): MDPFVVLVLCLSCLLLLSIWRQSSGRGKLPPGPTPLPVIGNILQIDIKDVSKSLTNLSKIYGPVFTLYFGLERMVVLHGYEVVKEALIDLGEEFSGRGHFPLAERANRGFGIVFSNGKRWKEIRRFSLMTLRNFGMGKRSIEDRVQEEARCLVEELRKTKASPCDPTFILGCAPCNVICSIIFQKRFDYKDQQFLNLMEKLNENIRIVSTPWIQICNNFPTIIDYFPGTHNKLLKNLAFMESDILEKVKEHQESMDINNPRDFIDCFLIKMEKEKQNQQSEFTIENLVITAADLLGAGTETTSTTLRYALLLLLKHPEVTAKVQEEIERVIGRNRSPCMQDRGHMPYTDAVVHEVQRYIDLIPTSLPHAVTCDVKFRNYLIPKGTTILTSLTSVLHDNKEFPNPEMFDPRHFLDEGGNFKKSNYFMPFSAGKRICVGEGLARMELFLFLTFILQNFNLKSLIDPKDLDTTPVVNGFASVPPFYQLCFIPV

## CSc1nncn1/N=C/c1ccc2c(c1)OCO2
Cytochrome P450 2C19
  AC50: 25.1 µM (inconclusive)
Cytochrome P450 2D6
  AC50: 22.4 µM (inconclusive)

## CCC(C)(C)NC(=O)CSc1nc(Cc2ccccc2)nc2ccccc12
[1]
  CC50: > 50 µM (active)

## CCNc1ncc2nc(-c3ccc(F)cc3)c(=O)n(C[C@H]3CCCO3)c2n1
Cytochrome P450 2D6
  AC50: 0.631 µM (inconclusive)

## O=C(CN(c1cccc(C(F)(F)F)c1)S(=O)(=O)c1ccc(Cl)c([N+](=O)[O-])c1)NCc1ccccc1Cl
[1]
  CC50: > 50 µM (active)
[2]
  AC50: 1.72 µM (active)

## Cc1c(C(=O)N(CCc2ccccc2)Cc2ccccc2)cccc1[N+](=O)[O-]
[1]
  CC50: 25.5 µM (active)

## O=C(Nc1ccccc1)Nc1ccc(O)c2ccccc12
[2]
  AC50: 2.56 µM (active)
[3]
  AC50: 9.08 µM (active)
Protein RecA
  EC50: 0.762 µM (active)

## CCc1ccc(Nc2cnn(-c3nc4ccccc4s3)c(=O)c2Cl)cc1
[1]
  CC50: 44.6 µM (active)

## O=C(c1cccc(-c2ccc(O)cc2)c1)N1CCOCC1
Large T antigen
  IC50: 10.2 µM (active)

## Cc1nc(Cl)cc(N/N=C/c2ccc(O)cc2)n1
Large T antigen
  IC50: 8.13 µM (active)

## COc1ccc(-c2c([C@H]3[C@H]4C=CC[C@@H](C)[C@@H]4C(=O)N3Cc3ccccc3)ccc3ccccc23)cc1
INS1
  AC50: 9.01 µM (active)

## Cc1cc(C(C)(C)CC(C)(C)C)ccc1OCCOCC[N+](C)(C)Cc1ccccc1 [METHYLBENZETHONIUM]
Cytochrome P450 2D6
  AC50: 12.6 µM (inconclusive)
Cytochrome P450 1A2
  AC50: 12.6 µM (inconclusive)

## CCN(CC)S(=O)(=O)c1cccc(NC(=O)c2cc3ccccc3o2)c1
[1]
  CC50: 10.9 µM (active)

## Oc1ccc(Cl)cc1/C=N\c1cnc2ccccc2c1
Cytochrome P450 2D6
  AC50: 5.01 µM (inconclusive)

## Cc1ccc(-c2noc(CCC(=O)NCCCN3CCN(c4cccc(Cl)c4)CC3)n2)cc1
[1]
  CC50: > 50 µM (active)

## Cc1cc(O)nc(N/N=C/c2ccc(-c3ccc(F)cc3)o2)n1
[2]
  AC50: 9.21 µM (active)

## CCOc1cc(/C=C2/NC(=O)N(CC(=O)OC)C2=O)ccc1O
Large T antigen
  IC50: 12.5 µM (active)

## O=C(CCc1nc(-c2ccccc2)no1)NCCc1ccccc1
Cytochrome P450 2D6
  AC50: 39.8 µM (inconclusive)
Cytochrome P450 2C9
  AC50: 15.8 µM (inconclusive)

## COc1ccc(-c2cc(C(F)F)nc(-n3nc(C)cc3C)n2)cc1
Cytochrome P450 2D6
  AC50: 22.4 µM (inconclusive)

## COc1ccc(NC(=O)CSc2nc3ccccc3cc2Cc2ccccc2)cc1
Cytochrome P450 2D6
  AC50: 0.2 µM (inconclusive)
Cytochrome P450 2C9
  AC50: 1.26 µM (inconclusive)

## CCS(=O)(=O)Nc1ccc(-c2cc(-c3ccccc3)c3cc(C)ccc3n2)cc1
[4]
  EC50: 7.31 µM (active)
Streptokinase A
  EC50: > 150 µM (not active)
[5]
  EC50: 27.6 µM (active)
[6]
  EC50: 24.1 µM (active)
Streptococcus
  EC50: 7.65 µM (active)
[2]
  AC50: 3.42 µM (active)

## O=C1c2cccc3c([N+](=O)[O-])ccc(c23)C(=O)N1CCc1ccccn1
[1]
  CC50: 7.83 µM (active)

## O=C(Nc1ccc(Cl)c(Cl)c1)Nc1nnc(CC2=CCCCC2)s1
INS1
  AC50: 3.51 µM (active)

## CCC(=O)O[C@@]1(C(=O)CCl)[C@@H](C)C[C@@H]2[C@H]3CCC4=CC(=O)C=C[C@@]4(C)[C@]3(F)[C@@H](O)C[C@@]21C
Cytochrome P450 2D6
  AC50: 10 µM (inconclusive)
Cytochrome P450 2C9
  AC50: 15.8 µM (inconclusive)

## Cc1noc(C)c1C(=O)Nc1ccc(C#N)cc1
[1]
  CC50: 23.4 µM (active)

## CCN(c1ccccc1)S(=O)(=O)c1ccc(NC(=S)NC(=O)c2ccc(Br)o2)cc1
Cytochrome P450 2D6
  AC50: 3.16 µM (inconclusive)

## CN1CCN(c2ncncc2-c2ccccc2C(F)(F)F)CC1
Cytochrome P450 2D6
  AC50: 20 µM (inconclusive)
Cytochrome P450 1A2
  AC50: 31.6 µM (inconclusive)
Cytochrome P450 3A4
  AC50: 3.98 µM (inconclusive)

## C[C@@H]1CC[C@]2(C(=O)O)CC[C@]3(C)C(=CCC4[C@]56CC[C@@](O)(OC5)C(C)(C)C6CC[C@]43C)C2[C@H]1C (stereo not given in full)
[2]
  AC50: 5.61 µM (active)

## CCc1ccc(N(CC(=O)Nc2nc3ccc(C)cc3s2)S(=O)(=O)c2c(C)noc2C)cc1
[2]
  AC50: 3.45 µM (active)

## Clc1cccc(Nc2nnc(-c3ccccc3)c3ccccc23)c1
Cytochrome P450 2D6
  AC50: 2 µM (inconclusive)
Cytochrome P450 3A4
  AC50: 7.94 µM (inconclusive)
